# Measured values as given in US5914242A, “Method for diminishing myocardial infarction using protein phosphatase inhibitors” (priority 1997, dated 1999).
# Tests used:
# PP2B = assay: Effect on PP2B; format: biochemical
# [1] = system: a variety of protein kinases; assay: Effect on protein kinases; format: biochemical
# acid phosphatase = assay: Effect on acid phosphatase; format: biochemical
# PP1/PP2A-chimera (CRHM2) = assay: Inhibition of recombinant PP1/PP2A chimera; format: biochemical, human PP1 / bovine PP2A
# Experimental: FIG. 6: Sequence of a PP1/PP2A chimera. To characterize the fostriecin binding site, the N-terminal region of PP1 was ligated to the C-terminal region of PP2A (in bold) to produce a PP1/PP2A-chimera (CRHM2). Previous studies indicate that the okadaic acid binding domain is contained in the C-terminal region of PP2A that was incorporated into CRHM2.
# FIG. 7: Effect of fostriecin and okadaic acid on the activity of recombinant CRHM2. CRHM2 activity was assayed in the presence of the indicated amount of fostriecin (FIG. 7A) or okadaic acid (FIG. 7B). […] Assays were conducted as described in FIG. 5. Each point represents the mean ± SE (n>6).
# PP1, an enzyme highly homologous to PP2A, could be expressed in a stable manner and in relatively large amounts. Thus, human PP1 was cloned and subcloned into a bacterial expression vector as was done for PP2A. […] To create a hybrid enzyme (a PP1/PP2A chimera) that could be expressed stably like rPP1 but would bind okadaic acid with high affinity like PP2A, a number of mutant forms of PP1 and PP2A were constructed. Then, through mutational analysis, the okadaic acid binding domain of PP2A was identified. The okadaic acid binding domain from PP2A was cloned behind the amino terminal domain of PP1. The hybrid, referred to as CRHM-2, was subcloned into an expression vector. Restriction analysis of CRHM-2 confirmed the identity of the construct.
# In these studies, the bacterial expressed PP1/PP2A hybrid enzyme was produced by growing appropriate strains of transformed E. coli at 18° C. for 48 hours in LB-media containing 50 μg/ml ampicillin, 1 mM MnCl2, and 50 μM IPTG. The bacteria were lysed with a French Press, and after centrifugation at 15,000×g for 45 min, the phosphatase was partially purified via ion-exchange [High Q (BioRad) and MonoQ (Pharmacia)] and affinity [Heparin-Sepharose (Pharmacia)] chromatography. The sensitivity of the chimera to fostriecin was determined employing the same protein phosphatase assay employed with endogenous PP1 or PP2A, with the addition of MnCl2 (1 mM) to the assay buffer.
# [2] = system: alkaline protein phosphatase; assay: Effect on alkaline protein phosphatase; format: biochemical
# [3] = system: divalent cation-independent serine/threonine protein phosphatase activity; assay: Divalent cation-independent phosphatase activity in dilute whole cell homogenate of rabbit ventricle; format: biochemical; conditions: crude whole cell homogenate, [32P]-phosphohistone
# Experimental: FIG. 5: Effect of fostriecin on the divalent cation-independent phosphatase activity contained in a dilute, whole cell homogenate of rabbit ventricle. Dilute homogenates of rabbit ventricle biopsies were assayed in the presence of the indicated amount of fostriecin. […] Assays were conducted in a total volume of 80 μl, and the indicated amount of fostriecin was added to the assay 10 minutes prior to initiation of the reaction by the addition of substrate. Each point represents the mean ± SE (n>6).
# Determination of protein phosphatase activity: Protein phosphatase activity against phosphohistone was determined by the quantification of liberated [^32 P] from phosphohistone according to previously established methods (see Honkanen et al., J. Biol. Chem. 265:19401-04 (1990); Honkanen et al., Mol. Pharmacol. 40:577-83 (1991); and Critz and Honkanen, Neuroprotocols 6:78-83 (1995)). Assays (80 μl final volume) were conducted in 50 mM Tris-buffer (pH 7.4) containing 0.5 mM DTT, 4 mM EDTA, and phosphoprotein (2 μM PO4). […] [^32 P]Phosphate liberated by the enzyme was then extracted as a phosphomolybdate complex and measured according to the methods of Killilea et al., Arch. […] Aliquots of the upper phase (100 μl) were removed for counting, and radioactivity was quantified with a scintillation counter. […]
smiles,measurement,setting,value
CC(O)(/C=C/C1CC=CC(=O)O1)C(CC(O)\C=C/C=C\C=C\CO)OP(=O)(O)O (stereo not shown) [fostriecin],effect on PP2B,PP2B,no effect
same,effect on a variety of protein kinases,[1],no effect
same,effect on acid phosphatase,acid phosphatase,no effect
same,sensitivity / potency of inhibition of the chimera,"PP1/PP2A-chimera (CRHM2); [32P]-phosphohistone, 1 mM MnCl2 in assay buffer",sensitive
same,binding affinity to the recombinant hybrid enzyme,PP1/PP2A-chimera (CRHM2); enzyme printed as rPP2Ac-1,affinity comparable to that of PP1
same,effect on alkaline protein phosphatase,[2],no effect
same,inhibition of phosphatase activity in rabbit heart ventricle homogenate,[3],inhibits
